System: 299254-011-R-J1-PDC complex spheroid viability
Assay: Anticancer human tumor 299254-011-R-J1-PDC patient-derived melanoma cell line growth inhibition [POLQ]
Details: for IC50: curve of first compound; for viability, T/C: stronger effect = lower value
In short: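 Growth inhibition in 3D: complex spheroids (tumor PDC, HUVEC, MSC) treated with POLQ inhibitor combinations; where Cmax unknown, highest tested concentration 10 microM, except SN-38 at 1 microM.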

[1] = second compound 0.0316 µM, first compound 0.0316 µM
[2] = second compound 0.0316 µM, first compound 0.1 µM
[3] = second compound 0.1 µM, first compound 0.0316 µM
[4] = second compound 0.1 µM, first compound 0.1 µM
[5] = second compound 0.316 µM, first compound 0.0316 µM
[6] = second compound 0.316 µM, first compound 0.1 µM
[7] = second compound 1 µM, first compound 0.0316 µM
[8] = second compound 1 µM, first compound 0.1 µM
[9] = second compound 3.16 µM, first compound 0.0316 µM
[10] = second compound 3.16 µM, first compound 0.1 µM
[11] = second compound 10 µM, first compound 0.0316 µM
[12] = second compound 10 µM, first compound 0.1 µM
[13] = second compound 0.0316 µM, first compound 0.316 µM
[14] = second compound 0.0316 µM, first compound 1 µM
[15] = second compound 0.0316 µM, first compound 3.16 µM
[16] = second compound 0.0316 µM, first compound 10 µM
[17] = second compound 0.1 µM, first compound 0.316 µM
[18] = second compound 0.1 µM, first compound 1 µM
[19] = second compound 0.1 µM, first compound 3.16 µM
[20] = second compound 0.1 µM, first compound 10 µM
[21] = second compound 0.316 µM, first compound 0.316 µM
[22] = second compound 0.316 µM, first compound 1 µM
[23] = second compound 0.316 µM, first compound 3.16 µM
[24] = second compound 0.316 µM, first compound 10 µM
[25] = second compound 1 µM, first compound 0.316 µM
[26] = second compound 1 µM, first compound 1 µM
[27] = second compound 1 µM, first compound 3.16 µM
[28] = second compound 1 µM, first compound 10 µM
[29] = second compound 3.16 µM, first compound 0.316 µM
[30] = second compound 3.16 µM, first compound 1 µM
[31] = second compound 3.16 µM, first compound 3.16 µM
[32] = second compound 3.16 µM, first compound 10 µM
[33] = second compound 10 µM, first compound 0.316 µM
[34] = second compound 10 µM, first compound 1 µM
[35] = second compound 10 µM, first compound 3.16 µM
[36] = second compound 10 µM, first compound 10 µM
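Note: spheroids exposed to drugs for one week before measurement.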
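Throughout, for viability, T/C: percent viability relative to DMSO vehicle control taken as 100%.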

Cn1ncnc1[C@H]1c2n[nH]c(=O)c3cc(F)cc(c23)N[C@@H]1c1ccc(F)cc1 + Cc1cccc(N(C)C(=O)C2C(O)CCN2c2nc(C)cc(C(F)(F)F)c2C#N)c1
IC50 (second compound 0.0316 µM): > 0.1 µM
IC50 (second compound 0.1 µM): > 0.1 µM
IC50 (second compound 0.316 µM): > 0.1 µM
IC50 (second compound 1 µM): > 0.1 µM
IC50 (second compound 3.16 µM): > 0.1 µM
IC50 (second compound 10 µM): > 0.1 µM
viability, T/C (second compound 0.0316 µM, first compound 0.000316 µM): 102%
viability, T/C (second compound 0.0316 µM, first compound 0.001 µM): 91.6%
viability, T/C (second compound 0.0316 µM, first compound 0.00316 µM): 95.9%
viability, T/C (second compound 0.0316 µM, first compound 0.01 µM): 110%
viability, T/C [1]: 112%
viability, T/C [2]: 113%
viability, T/C (second compound 0.1 µM, first compound 0.000316 µM): 119%
viability, T/C (second compound 0.1 µM, first compound 0.001 µM): 108%
viability, T/C (second compound 0.1 µM, first compound 0.00316 µM): 117%
viability, T/C (second compound 0.1 µM, first compound 0.01 µM): 106%
viability, T/C [3]: 114%
viability, T/C [4]: 119%
viability, T/C (second compound 0.316 µM, first compound 0.000316 µM): 108%
viability, T/C (second compound 0.316 µM, first compound 0.001 µM): 96.4%
viability, T/C (second compound 0.316 µM, first compound 0.00316 µM): 102%
viability, T/C (second compound 0.316 µM, first compound 0.01 µM): 114%
viability, T/C [5]: 106%
viability, T/C [6]: 102%
viability, T/C (second compound 1 µM, first compound 0.000316 µM): 111%
viability, T/C (second compound 1 µM, first compound 0.001 µM): 116%
viability, T/C (second compound 1 µM, first compound 0.00316 µM): 103%
viability, T/C (second compound 1 µM, first compound 0.01 µM): 114%
viability, T/C [7]: 102%
viability, T/C [8]: 94.1%
viability, T/C (second compound 3.16 µM, first compound 0.000316 µM): 90.1%
viability, T/C (second compound 3.16 µM, first compound 0.001 µM): 109%
viability, T/C (second compound 3.16 µM, first compound 0.00316 µM): 103%
viability, T/C (second compound 3.16 µM, first compound 0.01 µM): 111%
viability, T/C [9]: 122%
viability, T/C [10]: 114%
viability, T/C (second compound 10 µM, first compound 0.000316 µM): 93.6%
viability, T/C (second compound 10 µM, first compound 0.001 µM): 107%
viability, T/C (second compound 10 µM, first compound 0.00316 µM): 113%
viability, T/C (second compound 10 µM, first compound 0.01 µM): 94%
viability, T/C [11]: 98%
viability, T/C [12]: 99%

CC(C)n1c(=O)n(C)c2cnc3cc(F)c(-c4ccc(OCCCN5CCCCC5)nc4)cc3c21 + Cc1cccc(N(C)C(=O)C2C(O)CCN2c2nc(C)cc(C(F)(F)F)c2C#N)c1
IC50 (second compound 0.0316 µM): > 10 µM
IC50 (second compound 0.1 µM): > 10 µM
IC50 (second compound 0.316 µM): > 10 µM
IC50 (second compound 1 µM): > 10 µM
IC50 (second compound 3.16 µM): > 10 µM
IC50 (second compound 10 µM): > 10 µM
viability, T/C [1]: 98.6%
viability, T/C [2]: 102%
viability, T/C [13]: 84.6%
viability, T/C [14]: 90.1%
viability, T/C [15]: 102%
viability, T/C [16]: 68.2%
viability, T/C [3]: 96.2%
viability, T/C [4]: 92.9%
viability, T/C [17]: 90.4%
viability, T/C [18]: 90.1%
viability, T/C [19]: 97%
viability, T/C [20]: 81.2%
viability, T/C [5]: 93.9%
viability, T/C [6]: 98.8%
viability, T/C [21]: 89.2%
viability, T/C [22]: 88.9%
viability, T/C [23]: 94.1%
viability, T/C [24]: 76.3%
viability, T/C [7]: 92.5%
viability, T/C [8]: 96.5%
viability, T/C [25]: 89.1%
viability, T/C [26]: 98.8%
viability, T/C [27]: 93.5%
viability, T/C [28]: 67.6%
viability, T/C [9]: 113%
viability, T/C [10]: 119%
viability, T/C [29]: 90.3%
viability, T/C [30]: 95.3%
viability, T/C [31]: 90.4%
viability, T/C [32]: 64.1%
viability, T/C [11]: 87.9%
viability, T/C [12]: 97%
viability, T/C [33]: 106%
viability, T/C [34]: 107%
viability, T/C [35]: 79.3%
viability, T/C [36]: 71.1%

O=C(Nc1ccc(O)c(NS(=O)(=O)c2ccc(F)cc2)c1)c1ccc(-c2ccccc2)cc1 + COC1C(OC(N)=O)C(O)C(Oc2ccc3c(O)c(NC(=O)c4ccc(O)c(CC=C(C)C)c4)c(=O)oc3c2C)OC1(C)C
IC50 (second compound 0.0316 µM): 9.1 µM
IC50 (second compound 0.1 µM): > 10 µM
IC50 (second compound 0.316 µM): 8.62 µM
IC50 (second compound 1 µM): > 10 µM
IC50 (second compound 3.16 µM): > 10 µM
IC50 (second compound 10 µM): > 10 µM
viability, T/C [1]: 105%
viability, T/C [2]: 96.9%
viability, T/C [13]: 94.2%
viability, T/C [14]: 109%
viability, T/C [15]: 112%
viability, T/C [16]: 45.3%
viability, T/C [3]: 95.6%
viability, T/C [4]: 114%
viability, T/C [17]: 105%
viability, T/C [18]: 94.6%
viability, T/C [19]: 86.3%
viability, T/C [20]: 57.1%
viability, T/C [5]: 127%
viability, T/C [6]: 101%
viability, T/C [21]: 104%
viability, T/C [22]: 95.7%
viability, T/C [23]: 97.7%
viability, T/C [24]: 42.6%
viability, T/C [7]: 110%
viability, T/C [8]: 104%
viability, T/C [25]: 108%
viability, T/C [26]: 118%
viability, T/C [27]: 93.3%
viability, T/C [28]: 54.7%
viability, T/C [9]: 109%
viability, T/C [10]: 114%
viability, T/C [29]: 109%
viability, T/C [30]: 94.6%
viability, T/C [31]: 99.4%
viability, T/C [32]: 55.9%
viability, T/C [11]: 96.2%
viability, T/C [12]: 127%
viability, T/C [33]: 106%
viability, T/C [34]: 103%
viability, T/C [35]: 96.5%
viability, T/C [36]: 58.4%

COc1cc(C2c3cc4c(cc3C(OC3OC5COC(C)OC5C(O)C3O)C3COC(=O)C23)OCO4)cc(OC)c1O (stereo not drawn) + Nc1ccc(C#CCN(C(=O)Cc2ncc(C(F)(F)F)cc2C(F)(F)F)c2ccc(F)cc2)nn1
IC50 (second compound 0.0316 µM): > 10 µM
IC50 (second compound 0.1 µM): > 10 µM
IC50 (second compound 0.316 µM): > 10 µM
IC50 (second compound 1 µM): > 10 µM
IC50 (second compound 3.16 µM): > 10 µM
IC50 (second compound 10 µM): > 10 µM
viability, T/C [1]: 112%
viability, T/C [2]: 105%
viability, T/C [13]: 87.5%
viability, T/C [14]: 92.2%
viability, T/C [15]: 78.7%
viability, T/C [16]: 63.5%
viability, T/C [3]: 112%
viability, T/C [4]: 94.4%
viability, T/C [17]: 112%
viability, T/C [18]: 84.5%
viability, T/C [19]: 89.7%
viability, T/C [20]: 69.7%
viability, T/C [5]: 114%
viability, T/C [6]: 100%
viability, T/C [21]: 88.5%
viability, T/C [22]: 106%
viability, T/C [23]: 83.7%
viability, T/C [24]: 74.8%
viability, T/C [7]: 108%
viability, T/C [8]: 99.2%
viability, T/C [25]: 90.3%
viability, T/C [26]: 99.6%
viability, T/C [27]: 71.8%
viability, T/C [28]: 82.3%
viability, T/C [9]: 99.7%
viability, T/C [10]: 102%
viability, T/C [29]: 88.9%
viability, T/C [30]: 80.7%
viability, T/C [31]: 76.8%
viability, T/C [32]: 69.3%
viability, T/C [11]: 98.8%
viability, T/C [12]: 100%
viability, T/C [33]: 89.9%
viability, T/C [34]: 75.5%
viability, T/C [35]: 89.1%
viability, T/C [36]: 71.7%

From PubChem BioAssay AID1963849 (Molecular Pharmacology Branch, DTP, NCI, 2024)
